According to the supplement of paper PMC13380429:

What was measured:
Conditions in all cases: 72 h
HepG2 [1] = test: cell viability relative to DMSO; higher = less toxic
Vero E6 [2] = test: as above
Caco-2 [3] = test: as above
Calu-3 [4] = test: as above
U2OS [5] = test: as above
HepG2 [6] = test: relative viability EC50 (midpoint between 100% and the lowest measured viability); higher = less toxic
Vero E6 [7] = test: as above
Caco-2 [8] = test: as above
Calu-3 [9] = test: as above
U2OS [10] = test: as above
HepG2 [11] = test: drug sensitivity score (DSS) for viability; higher = more toxic; extreme values may be limits of the assay
Vero E6 [12] = test: as above
Caco-2 [13] = test: as above
Calu-3 [14] = test: as above
U2OS [15] = test: as above

SMILES | cell viability (HepG2 [1]; 1 nM) [%] | cell viability (HepG2 [1]; 10 nM) [%] | cell viability (HepG2 [1]; 100 nM) [%] | cell viability (HepG2 [1]; 1000 nM) [%] | cell viability (HepG2 [1]; 10000 nM) [%] | cell viability (Vero E6 [2]; 1 nM) [%] | cell viability (Vero E6 [2]; 10 nM) [%] | cell viability (Vero E6 [2]; 100 nM) [%] | cell viability (Vero E6 [2]; 1000 nM) [%] | cell viability (Vero E6 [2]; 10000 nM) [%] | cell viability (Caco-2 [3]; 1 nM) [%] | cell viability (Caco-2 [3]; 10 nM) [%] | cell viability (Caco-2 [3]; 100 nM) [%] | cell viability (Caco-2 [3]; 1000 nM) [%] | cell viability (Caco-2 [3]; 10000 nM) [%] | cell viability (Calu-3 [4]; 1 nM) [%] | cell viability (Calu-3 [4]; 10 nM) [%] | cell viability (Calu-3 [4]; 100 nM) [%] | cell viability (Calu-3 [4]; 1000 nM) [%] | cell viability (Calu-3 [4]; 10000 nM) [%] | cell viability (U2OS [5]; 1 nM) [%] | cell viability (U2OS [5]; 10 nM) [%] | cell viability (U2OS [5]; 100 nM) [%] | cell viability (U2OS [5]; 1000 nM) [%] | cell viability (U2OS [5]; 10000 nM) [%] | relative viability EC50 (HepG2 [6]) [µM] | relative viability EC50 (Vero E6 [7]) [µM] | relative viability EC50 (Caco-2 [8]) [µM] | relative viability EC50 (Calu-3 [9]) [µM] | relative viability EC50 (U2OS [10]) [µM] | drug sensitivity score (HepG2 [11]) | drug sensitivity score (Vero E6 [12]) | drug sensitivity score (Caco-2 [13]) | drug sensitivity score (Calu-3 [14]) | drug sensitivity score (U2OS [15])
CN(C)CCOC(c1ccccc1)c1ccccc1.Cn1c(=O)c2[nH]c(Cl)nc2n(C)c1=O [dimenhydrinate] | 95.7 | 103 | 110 | 107 | 106 | 93.8 | 99.7 | 96.2 | 100 | 103 | 96.3 | 88.1 | 88.1 | 104 | 99.5 | 103 | 94.4 | 97.2 | 99.2 | 98 | 102 | 96.5 | 98 | 102 | 106 | > 10 | > 10 | > 10 | > 10 | > 10 | 0 | 0 | 0 | 0 | 0
O=C(Nc1ccccc1)OCC(CN1CCCCC1)OC(=O)Nc1ccccc1 (stereo not given) [diperodon] | 100 | 97.8 | 96.1 | 110 | 103 | 90.9 | 95.5 | 87 | 96.6 | 100 | 87.6 | 89.7 | 87.6 | 83 | 95.5 | 112 | 122 | 93.3 | 104 | 98.8 | 95.5 | 93.6 | 94.5 | 91.8 | 94.4 | > 10 | > 10 | > 10 | > 10 | > 10 | 0 | 0 | 0 | 0 | 0
CC(CCc1ccc(O)cc1)NCCc1ccc(O)c(O)c1 (stereo not given) [dobutamine] | 106 | 110 | 93.1 | 96.7 | 93.3 | 106 | 103 | 97.1 | 98.5 | 103 | 106 | 99.2 | 99.3 | 95 | 104 | 90.2 | 79.6 | 92.8 | 96.9 | 105 | 101 | 96.6 | 97.7 | 102 | 98 | > 10 | > 10 | > 10 | > 10 | > 10 | 0 | 0 | 0 | 0 | 0
CCOC(=O)/C=C(C)/C=C/C=C(C)/C=C/c1c(C)cc(OC)c(C)c1C [etretinate] | 94.2 | 99.4 | 103 | 102 | 102 | 97.9 | 96.6 | 93 | 98.5 | 108 | 100 | 107 | 92.2 | 111 | 95.3 | 101 | 101 | 97.5 | 106 | 109 | 96 | 101 | 98.1 | 100 | 99.5 | > 10 | > 10 | > 10 | > 10 | > 10 | 0 | 0 | 0 | 0 | 0
CC(C)c1cc(-c2n[nH]c(=O)n2-c2ccc3c(ccn3C)c2)c(O)cc1O [ganetespib] | 97.7 | 56.6 | 2.3 | 1.2 | 1.1 | 101 | 107 | 46.3 | 25.9 | 29.1 | 99.9 | 95.4 | 37.4 | 35.2 | 29.3 | 91.5 | 95.9 | 47.8 | 35.7 | 32.5 | 98.4 | 96.7 | 3.7 | 3.4 | 1.5 | 0.0114 | 0.0685 | 0.0369 | 0.0478 | 0.0307 | 35.3 | 19.9 | 21.3 | 19.1 | 30.2
CO/N=C1\CN(c2nc3c(cc2F)c(=O)c(C(=O)O)cn3C2CC2)CC1CN (stereo not given) [gemifloxacin] | 105 | 108 | 105 | 100 | 86.8 | 103 | 102 | 102 | 102 | 95.7 | 92.2 | 114 | 105 | 96.9 | 95.9 | 99.6 | 98.5 | 98.4 | 98.5 | 105 | 97 | 102 | 97.3 | 100 | 94.3 | > 10 | > 10 | > 10 | > 10 | > 10 | 0.1 | 0 | 0 | 0 | 0
